Our source for the IC50 values is ChEMBL document CHEMBL1158239, “Costaricine, a new antiplasmodial bisbenzylisoquinoline alkaloid from Nectandra salicifolia trunk bark” (J Nat Prod, 1996).

The test system of experiment [1] is Plasmodium falciparum. In words: Antimalarial activity against chloroquine-sensitive Plasmodium falciparum D6 as [3H]hypoxanthine uptake. The class given is functional, organism-based.
The subject of experiment [2] is Plasmodium falciparum. As to the kind of experiment: Antimalarial activity against chloroquine-resistant Plasmodium falciparum W2 as [3H]hypoxanthine uptake. It counts as functional, organism-based.

SMILES strings stand for the structures. Converted amounts (≈) assume the structure as drawn.

By IC50 is commonly meant the concentration that inhibits the measured activity by half. Higher therefore signals a need for much substance.

`COc1ccc2c(c1O)[C@H](Cc1ccc(O)cc1)NCC2`: the IC50 in the experiment with Plasmodium falciparum [1] was determined as 4.1 µg/mL (≈ 14.4 µM); in the experiment with Plasmodium falciparum [2], 3.1 µg/mL (≈ 10.9 µM).

For the molecule `COc1ccc2c(c1O)[C@H](Cc1ccc(O)cc1)N(C)CC2`, the IC50 in the experiment on Plasmodium falciparum [1] turned out to be 4.09 µg/mL (≈ 13.7 µM); in the experiment with Plasmodium falciparum [2] it was 4.48 µg/mL (≈ 15 µM).

Take `COc1cc2c(cc1OC)-c1c(OC)c(OC)c(OC)c3c1[C@H](C2)NCC3`: the IC50 in the experiment with Plasmodium falciparum [1] was 1.51 µg/mL (≈ 4.07 µM); with Plasmodium falciparum [2] it was 1.75 µg/mL (≈ 4.71 µM).

For the molecule `COc1cc2c(cc1O)C[C@H]1c3c(cc(OC)c(OC)c3-2)CCN1C`, the IC50 in the experiment on Plasmodium falciparum [1] is 7.15 µg/mL (≈ 20.9 µM); in the experiment on Plasmodium falciparum [2], 2.7 µg/mL (≈ 7.91 µM).

For the molecule `COc1ccc2c(c1O)-c1c(OC)c(OC)cc3c1[C@H](C2)NCC3`, the IC50 in the experiment on Plasmodium falciparum [1] is 1.99 µg/mL (≈ 6.08 µM); in the experiment on Plasmodium falciparum [2] it was 1.9 µg/mL (≈ 5.8 µM).

Turning to `COc1cc2c(cc1O)[C@H](Cc1ccc(O)cc1)N(C)CC2`, the IC50 amounted to 2.73 µg/mL (≈ 9.12 µM) with Plasmodium falciparum [1] and 3.81 µg/mL (≈ 12.7 µM) in the experiment on Plasmodium falciparum [2].

For the molecule `COc1cc2c(cc1OC)[C@]13CCN(C)[C@@H](C2)[C@@H]1CC(=O)C(OC)C3` (some centres not stated), the IC50 with Plasmodium falciparum [1] came out at 7.1 µg/mL (≈ 20.6 µM); in the experiment with Plasmodium falciparum [2] it was 9.02 µg/mL (≈ 26.1 µM).

In the case of `COc1ccc(C[C@H]2c3cc(O)c(OC)cc3CCN2C)cc1O` [(S)-RETICULINE], the results for the IC50 in the experiment on Plasmodium falciparum [1] and in the experiment on Plasmodium falciparum [2] were 5.8 µg/mL (≈ 17.6 µM) and 3.65 µg/mL (≈ 11.1 µM), respectively.

On to `C[C@@H]1CC[C@H]2[C@@H](C)C(=O)O[C@@H]3O[C@@]4(C)CC[C@@H]1[C@]32OO4` [ARTEMISININ], for which the IC50 with Plasmodium falciparum [1] came out at 0.0041 µg/mL (≈ 0.0145 µM); in the experiment on Plasmodium falciparum [2] it was 0.0022 µg/mL (≈ 0.00779 µM).

In the case of `COc1cc2c(cc1O)C[C@H]1c3c(cc(O)c(OC)c3-2)CCN1C` [BOLDINE], the values for the IC50 in the experiment with Plasmodium falciparum [1] and in the experiment on Plasmodium falciparum [2] were 2.13 µg/mL (≈ 6.51 µM) and 1.47 µg/mL (≈ 4.49 µM), respectively.

For the molecule `COc1cc2c(cc1O)[C@@H](Cc1ccc(Oc3cc(C[C@H]4NCCc5cc(OC)c(O)cc54)ccc3OC)cc1)NCC2` [COSTARICINE], the IC50 is 0.05 µg/mL (≈ 0.0858 µM) in the experiment on Plasmodium falciparum [1] and 0.294 µg/mL (≈ 0.505 µM) in the experiment on Plasmodium falciparum [2].

On to `COc1cc2c(cc1O)C[C@H]1c3c(cc(OC)c(O)c3-2)CCN1C` [ISOBOLDINE], for which the IC50 with Plasmodium falciparum [1] was determined as 0.668 µg/mL (≈ 2.04 µM); in the experiment on Plasmodium falciparum [2], 0.904 µg/mL (≈ 2.76 µM).

Take `COc1ccc2c(c1O)-c1c(OC)c(OC)cc3c1[C@H](C2)N(C)CC3` [ISOCORYDINE]: the values for the IC50 in the experiment with Plasmodium falciparum [1] and in the experiment with Plasmodium falciparum [2] were 1.9 µg/mL (≈ 5.57 µM) and 2.83 µg/mL (≈ 8.29 µM), respectively.

Regarding `COc1cc2c(cc1O)C[C@@H]1NCCc3cc(OC)c(OC)c-2c31` [LAUROTETANINE], the IC50 in the experiment with Plasmodium falciparum [1] worked out at 3.9 µg/mL (≈ 11.9 µM); in the experiment on Plasmodium falciparum [2], 2.53 µg/mL (≈ 7.73 µM).

As to `COc1cc2c(cc1O)C[C@@H]1NCCc3cc(O)c(OC)c-2c31` [NORBOLDINE], the IC50 in the experiment with Plasmodium falciparum [1] was determined as 1.24 µg/mL (≈ 3.96 µM); in the experiment with Plasmodium falciparum [2], 1.68 µg/mL (≈ 5.36 µM).

For the molecule `C=C[C@H]1CN2CC[C@H]1C[C@H]2[C@H](O)c1ccnc2ccc(OC)cc12` [QUININE], the IC50 in the experiment with Plasmodium falciparum [1] was found to be 0.0157 µg/mL (≈ 0.0484 µM); with Plasmodium falciparum [2] it was 0.0388 µg/mL (≈ 0.12 µM).
